This is an account of results in paper PMC5080911 (Journal of medicinal chemistry, 2016).

One data set concerns tubulin. Kind of data set: Tubulin polymerization assay. The note with it: for effect on tubulin polymerization / time to reach maximum/plateau of tubulin polymerization: 3 µM; for effect on tubulin polymerization: not irradiated; for time to reach maximum/plateau of tubulin polymerization: 37 °C, monitored 1 h; for tubulin polymerization effect of irradiated sample: sample irradiated with far-red light.

The nature of data set [1]: Stability of prodrugs in the complete medium under dark conditions. It is filed as physicochemical. The note with it: 37 °C, 10 µM, 96 h.
The format of data set [2] is physicochemical. The note with it: 10 µM in DMEM with 5% FCS, 690 nm.
A further data set concerns SKOV-3 cells. Kind of data set: Stability of prodrugs with the SKOV-3 cells in the dark. The data set is classed as in vitro ADME. The note with it: 500 nM, 3 day incubation with SKOV-3 cells.
The nature of data set [3]: Solubility in aqueous medium. It is filed as physicochemical. The note with it: qualitative.
[4] abbreviates: 5.6 mW/cm^2, illumination 30 min.

Like-named read-outs stand apart in the source and are kept apart here.

On to `COc1ccc(/C=C\c2cc(OC)c(OC)c(OC)c2)cc1O` [CA4, Combretastatin A-4, reference compound], for which the “effect on tubulin polymerization” value with tubulin was “almost completely prevented the polymerization”.
Take `CC(=O)O[C@H]1C(=O)[C@@]2(C)[C@H]([C@H](OC(=O)c3ccccc3)[C@]3(O)C[C@H](OC(=O)[C@H](OC(=O)/C=C/N4CCN(CCO[Si]5(OCCN6CCN(/C=C/C(=O)O[C@@H](C(=O)O[C@H]7C[C@@]8(O)[C@@H](OC(=O)c9ccccc9)[C@@H]9[C@]%10(OC(C)=O)CO[C@@H]%10C[C@H](O)[C@@]9(C)C(=O)[C@H](OC(C)=O)C(=C7C)C8(C)C)[C@@H](NC(=O)c7ccccc7)c7ccccc7)CC6)n6c7c8ccccc8c6/N=C6N=C(/N=c8/c9ccccc9/c(n85)=N/C5=NC(=N\7)/c7ccccc75)c5ccccc5\6)CC4)[C@@H](NC(=O)c4ccccc4)c4ccccc4)C(C)=C1C3(C)C)[C@]1(OC(C)=O)CO[C@@H]1C[C@@H]2O` [Compound 4]: the “decrease (loss) of prodrug in complete medium” value in data set [1] is reported as “less than 7%”. In addition, the “PTX released from the prodrug” value in data set [2] (5.6 mW/cm^2, illumination 10 min) was “about 83%”; in data set [2] (setting [4]), about 93%. Besides, the “reduction of recovered prodrug (cells + culture medium)” value in the data set on SKOV-3 cells is given as 4.9%. Moreover, the “time to reach maximum/plateau of tubulin polymerization” value with tubulin is given as ~ 40 min. Moreover, the “tubulin polymerization effect of irradiated sample” value with tubulin is reported as “significantly increased”.
As to `CC(=O)O[C@H]1C(=O)[C@@]2(C)[C@H](O)C[C@@H]3OC[C@]3(OC(C)=O)[C@@H]2[C@@H](OC(=O)c2ccccc2)[C@]2(O)C[C@@H](OC(=O)[C@@H](OC(=O)CCC(=O)N3CCN(CCO[Si]4(OCCN5CCN(C(=O)CCC(=O)O[C@@H](C(=O)O[C@@H]6C[C@@]7(O)[C@H](OC(=O)c8ccccc8)[C@H]8[C@@]9(OC(C)=O)CO[C@H]9C[C@@H](O)[C@]8(C)C(=O)[C@H](OC(C)=O)C(=C6C)C7(C)C)[C@H](NC(=O)c6ccccc6)c6ccccc6)CC5)n5c6c7ccccc7c5/N=C5N=C(/N=c7/c8ccccc8/c(n74)=N/C4=NC(=N\6)/c6ccccc64)c4ccccc4\5)CC3)[C@H](NC(=O)c3ccccc3)c3ccccc3)C(C)=C1C2(C)C` (stereo partly shown) [Compound 5], the “PTX released from the prodrug” value in data set [2] (setting [4]) is on record as “could not detect PTX”. In addition, the “reduction of recovered prodrug (cells + culture medium)” value with SKOV-3 cells turned out to be 3.1%. The “solubility in aqueous medium” value in data set [3] is “lower solubility in aqueous medium than 4”. For the same compound, in the data set on tubulin, the “time to reach maximum/plateau of tubulin polymerization” value is listed as ~ 40 min and the “tubulin polymerization effect of irradiated sample” value is reported as “not much change”.
For the compound `CC(=O)O[C@H]1C(=O)[C@@]2(C)[C@H]([C@H](OC(=O)c3ccccc3)[C@]3(O)C[C@H](OC(=O)[C@H](O)[C@@H](NC(=O)c4ccccc4)c4ccccc4)C(C)=C1C3(C)C)[C@]1(OC(C)=O)CO[C@@H]1C[C@@H]2O` [PTX, Paclitaxel, reference compound], in the data set on tubulin, the “effect on tubulin polymerization” value is on record as “the tubulin polymerization was rapid”.
